Experimental data published in patent US20240207256A1, “CERTAIN CHEMICAL ENTITIES, COMPOSITIONS, AND METHODS” (NeuPharma, Inc, priority 2021, published 2024).

Key:
[1] = target: Na+/K+-ATPase; test: Na+/K+-ATPase inhibition; type: biochemical; conditions: read-out: IC50 against Na+/K+-ATPase
[2] = Compound A loading onto CalliSpheres microspheres (residual concentration by HPLC); type: physicochemical; conditions: for Concentration of Residual: 1 g microspheres 100-300 μm, 2 mg in 4 ml NaOAc/HOAc buffer 100 mM pH5.0; for Amount of Compound Loaded: onto 1 g microspheres
Protocol: Microspheres (1 g, 100-300 μm, CalliSpheres® CallisynBiomedical, Inc.) were immersed into Compound A solution (2 mg in 4 ml of NaOAc/HOAc buffer (100 mM, pH5.0)) using a 10 mL disposable syringe. Residual compound concentration remaining in the depleted loading solution over time was determined by HPLC method.
(§1) HPLC was performed using the following instrument and/or conditions: […]

[3] = Elution of Compound A from loaded microspheres using the T-Apparatus; type: physicochemical; conditions: 50 mL PBS pH 7.4, 25° C.
Protocol: The microspheres loaded with Compound A were eluted into 50 mL of phosphate buffer solution (PBS, pH 7.4) at 25° C. using a T-Apparatus (Lewis A L, Gonzalez M V, Lloyd A W, et al. DC bead: in vitro characterization of a drug-delivery device for transarterial chemoembolization. J Vasc Interv Radiol, 2006, 17: 335-42). The concentration of Compound A was determined using HPLC method.
as §1

C[C@]12CC[C@H](OC(=O)N3CCNCC3)C[C@H]1CC[C@@H]1[C@@H]2CC[C@]2(C)[C@@H](c3ccc(=O)oc3)CC[C@]12O [Compound A, (3S,5R,8R,9S,10S,13R,14S,17R)-14-hydroxy-10,13-dimethyl-17-(2-oxo-2H-pyran-5-yl)hexadecahydro-1H-cyclopenta[α]phenanthren-3-yl piperazine-1-carboxylate]
IC50 [1]: ~20 nM
Concentration of Residual ([2]; time 0 h): 458000 ng/mL
Amount of Compound Loaded ([2]; time 0 h): 0 mg
Concentration of Residual ([2]; time 0.25 h): 91000 ng/mL
Amount of Compound Loaded ([2]; time 0.25 h): 1.47 mg
Concentration of Residual ([2]; time 0.5 h): 81000 ng/mL
Amount of Compound Loaded ([2]; time 0.5 h): 1.51 mg
Concentration of Residual ([2]; time 0.75 h): 83000 ng/mL
Amount of Compound Loaded ([2]; time 0.75 h): 1.50 mg
Concentration of Residual ([2]; time 1 h): 60000 ng/mL
Amount of Compound Loaded ([2]; time 1 h): 1.59 mg
Amount of Compound Eluted ([3]; time 0.083 h): 0.63 mg
Concentration of Compound Eluted ([3]; time 0.083 h): 13000 ng/mL
Amount of Compound Eluted ([3]; time 0.5 h): 0.67 mg
Concentration of Compound Eluted ([3]; time 0.5 h): 14000 ng/mL
Amount of Compound Eluted ([3]; time 0.75 h): 0.70 mg
Concentration of Compound Eluted ([3]; time 0.75 h): 14000 ng/mL
Amount of Compound Eluted ([3]; time 1 h): 0.70 mg
Concentration of Compound Eluted ([3]; time 1 h): 14000 ng/mL
Amount of Compound Eluted ([3]; time 2 h): 0.76 mg
Concentration of Compound Eluted ([3]; time 2 h): 15000 ng/mL
Amount of Compound Eluted ([3]; time 4 h): 0.94 mg
Concentration of Compound Eluted ([3]; time 4 h): 19000 ng/mL
Amount of Compound Eluted ([3]; time 6 h): 1.10 mg
Concentration of Compound Eluted ([3]; time 6 h): 22000 ng/mL
Amount of Compound Eluted ([3]; time 24 h): 1.21 mg
Concentration of Compound Eluted ([3]; time 24 h): 24000 ng/mL
